Results as given in ChEMBL document CHEMBL4359906, “Design and synthesis of new N-terminal fatty acid modified-antimicrobial peptide analogues with potent in vitro biological activity” (Eur J Med Chem, 2019).
≈ marks a conversion by molar mass, not a printed value. Calls of active or inactive are those of the source. No cut-off for these calls is given here. Where a SMILES comes first, the peptide text is derived from it.

Legend:
[1] = tested on: Escherichia coli; assay: Induction of membrane disruption in Escherichia coli ATCC 25922 assessed as corrugated membrane surface at 4 times of MIC after 2 hrs by SEM analysis; format: functional, organism-based
[2] = tested on: Escherichia coli; assay: Disruption of membrane integrity in Escherichia coli ATCC 25922 assessed as membrane damage by measuring PI fluorescence at 4 times of MIC incubated for 1 hr by PI dye based flow cytometric analysis (reference value: 1.35%); format: functional
[3] = tested on: Erythrocyte; assay: Hemolytic activity in human RBC measured after 1 hr by microplate reader analysis; format: ADME, cell-based
[4] = tested on: Staphylococcus aureus; assay: Antibacterial activity against Staphylococcus aureus ATCC 25923 after 18 hrs in presence of FeCl3 by CLSI based broth microdilution method (reference value: 64 microM); format: functional; conditions: ATCC 25923, 18 h
[5] = tested on: Pseudomonas aeruginosa; assay: Antibacterial activity against Pseudomonas aeruginosa ATCC 27853 after 18 hrs by CLSI based broth microdilution method; format: functional; conditions: ATCC 27853, 18 h
[6] = tested on: Escherichia coli; assay: Induction of ROS generation in Escherichia coli ATCC 25922; format: functional, organism-based
[7] = tested on: Pseudomonas aeruginosa; assay: Potentiation of polymyxin B-induced antibacterial activity against Pseudomonas aeruginosa ATCC 27853 assessed as FICI after 18 hrs by checker board assay; format: functional
[8] = tested on: Escherichia coli; assay: Ratio of antibacterial activity against Escherichia coli ATCC 25922 in presence of MgCl2 to antibacterial activity against Escherichia coli ATCC 25922; format: functional
[9] = tested on: Escherichia coli; assay: Antimicrobial activity against Escherichia coli ATCC 25922 at 1 mM preincubated for 6 hrs in presence of 0.2 ug/ml trypsin and measured after 18 hrs by microplate reader analysis; format: functional, organism-based
[10] = tested on: Staphylococcus aureus; assay: Ratio of antibacterial activity against Staphylococcus aureus ATCC 25923 in presence of KCl to antibacterial activity against Staphylococcus aureus ATCC 25923; format: functional
[11] = tested on: Escherichia coli; assay: Antibacterial activity against Escherichia coli ATCC 25922 after 18 hrs in presence of NaCl by CLSI based broth microdilution method (reference value: 64 microM); format: functional; conditions: ATCC 25922, 18 h
[12] = tested on: Staphylococcus aureus; assay: Antibiofilm activity against Staphylococcus aureus ATCC 25923 at 1 to 2 times of MIC after 24 hrs by crystal violet staining based assay; format: functional, organism-based
[13] = tested on: Staphylococcus aureus; assay: Antibacterial activity against Staphylococcus aureus ATCC 25923 after 18 hrs in presence of KCl by CLSI based broth microdilution method (reference value: 64 microM); format: functional; conditions: ATCC 25923, 18 h
[14] = tested on: Escherichia coli; assay: Induction of membrane disruption in Escherichia coli ATCC 25922 assessed as rough membrane surface at 4 times of MIC after 2 hrs by SEM analysis; format: functional, organism-based
[15] = tested on: Escherichia coli; assay: Disruption of membrane integrity in Escherichia coli ATCC 25922 assessed as membrane damage by measuring PI fluorescence at 2 times of MIC incubated for 1 hr by PI dye based flow cytometric analysis (reference value: 1.35%); format: functional
[16] = tested on: Klebsiella pneumoniae; assay: Potentiation of rifampicin-induced antibacterial activity against Klebsiella pneumoniae ATCC 700603 assessed as FICI after 18 hrs by checker board assay; format: functional
[17] = Selectivity index, ratio of MHC10 for human RBC to geometric mean of peptide MIC for gram negative bacteria; format: toxicity; conditions: human red blood cells, read-out: Selectivity Index
[18] = tested on: Klebsiella pneumoniae; assay: Potentiation of polymyxin B-induced antibacterial activity against Klebsiella pneumoniae ATCC 700603 assessed as FICI after 18 hrs by checker board assay; format: functional
[19] = tested on: Escherichia coli; assay: Antibacterial activity against Escherichia coli ATCC 25922 after 18 hrs by CLSI based broth microdilution method; format: functional; conditions: ATCC 25922, 18 h
[20] = tested on: Pseudomonas aeruginosa; assay: Potentiation of rifampicin-induced antibacterial activity against Pseudomonas aeruginosa ATCC 27853 assessed as FICI after 18 hrs by checker board assay; format: functional
[21] = tested on: Escherichia coli; assay: Induction of membrane disruption in Escherichia coli ATCC 25922 assessed as degeneration in membrane at 4 times of MIC after 2 hrs by SEM analysis; format: functional, organism-based
[22] = tested on: Escherichia coli; assay: Antibacterial activity against Escherichia coli ATCC 25922 after 18 hrs in presence of FeCl3 by CLSI based broth microdilution method (reference value: 64 microM); format: functional; conditions: ATCC 25922, 18 h
[23] = tested on: Escherichia coli; assay: Ratio of antibacterial activity against Escherichia coli ATCC 25922 in presence of NaCl to antibacterial activity against Escherichia coli ATCC 25922; format: functional
[24] = tested on: Staphylococcus aureus; assay: Antibacterial activity against Staphylococcus aureus ATCC 25923 after 18 hrs in presence of MgCl2 by CLSI based broth microdilution method (reference value: 64 microM); format: functional; conditions: ATCC 25923, 18 h
[25] = tested on: Escherichia coli; assay: Ratio of MIC for Escherichia coli ATCC 25922 preincubated for 1 hr in presence of 10% mouse serum and measured after 18 hrs to MIC for antibacterial activity against Escherichia coli ATCC 25922 after 18 hrs; format: functional
[26] = tested on: Escherichia coli; assay: Antimicrobial activity against Escherichia coli ATCC 25922 at 1 mM preincubated for 6 hrs in presence of 2 ug/ml chymotrypsin and measured after 18 hrs by microplate reader analysis; format: functional, organism-based
[27] = tested on: Staphylococcus aureus; assay: Ratio of antibacterial activity against Staphylococcus aureus ATCC 25923 in presence of NaCl to antibacterial activity against Staphylococcus aureus ATCC 25923; format: functional
[28] = tested on: Staphylococcus aureus; assay: Antibacterial activity against Staphylococcus aureus ATCC 25923 after 18 hrs in presence of NaCl by CLSI based broth microdilution method (reference value: 64 microM); format: functional; conditions: ATCC 25923, 18 h
[29] = tested on: Escherichia coli; assay: Antibacterial activity against Escherichia coli ATCC 43837 after 18 hrs by CLSI based broth microdilution method; format: functional; conditions: ATCC 43837, 18 h
[30] = tested on: Escherichia coli; assay: Ratio of antibacterial activity against Escherichia coli ATCC 25922 in presence of KCl to antibacterial activity against Escherichia coli ATCC 25922; format: functional
[31] = tested on: Staphylococcus aureus; assay: Ratio of antibacterial activity against Staphylococcus aureus ATCC 25923 in presence of FeCl3 to antibacterial activity against Staphylococcus aureus ATCC 25923; format: functional
[32] = tested on: Escherichia coli; assay: Antimicrobial activity against Escherichia coli ATCC 25922 preincubated for 6 hrs in presence of 10% mouse serum and measured after 18 hrs by CLSI-based broth microdilution assay (reference value: 64 microM); format: functional
[33] = tested on: Escherichia coli; assay: Ratio of MIC for Escherichia coli ATCC 25922 preincubated for 6 hrs in presence of 10% mouse serum and measured after 18 hrs to MIC for antibacterial activity against Escherichia coli ATCC 25922 after 18 hrs; format: functional
[34] = tested on: Klebsiella pneumoniae; assay: Antibacterial activity against Klebsiella pneumoniae ATCC 700603 after 18 hrs by CLSI based broth microdilution method; format: functional; conditions: Klebsiella pneumoniae, 700603, 18 h
[35] = tested on: Escherichia coli; assay: Induction of membrane disruption in Escherichia coli ATCC 25922 assessed as fracture in membrane at 4 times of MIC after 2 hrs by SEM analysis; format: functional, organism-based
[36] = tested on: Escherichia coli; assay: Potentiation of polymyxin B-induced antibacterial activity against Escherichia coli ATCC 25922 assessed as FICI after 18 hrs by checker board assay; format: functional
[37] = tested on: Staphylococcus aureus; assay: Antibacterial activity against methicillin-resistant Staphylococcus aureus 936 after 18 hrs by CLSI based broth microdilution method; format: functional; conditions: Staphylococcus aureus, 936, 18 h
[38] = tested on: Escherichia coli; assay: Ratio of antibacterial activity against Escherichia coli ATCC 25922 in presence of FeCl3 to antibacterial activity against Escherichia coli ATCC 25922; format: functional
[39] = tested on: Bacillus subtilis; assay: Antibacterial activity against Bacillus subtilis ATCC 23857 after 18 hrs by CLSI based broth microdilution method; format: functional; conditions: ATCC 23857, 18 h
[40] = tested on: Escherichia coli; assay: Potentiation of rifampicin-induced antibacterial activity against Escherichia coli ATCC 25922 assessed as FICI after 18 hrs by checker board assay; format: functional
[41] = tested on: Staphylococcus aureus; assay: Antibacterial activity against Staphylococcus aureus ATCC 25923 after 18 hrs by CLSI based broth microdilution method; format: functional; conditions: ATCC 25923, 18 h
[42] = tested on: Escherichia coli; assay: Antibacterial activity against Escherichia coli ATCC 25922 after 18 hrs in presence of KCl by CLSI based broth microdilution method (reference value: 64 microM); format: functional; conditions: ATCC 25922, 18 h
[43] = tested on: Staphylococcus aureus; assay: Ratio of antibacterial activity against Staphylococcus aureus ATCC 25923 in presence of MgCl2 to antibacterial activity against Staphylococcus aureus ATCC 25923; format: functional
[44] = tested on: Escherichia coli; assay: Antibacterial activity against Escherichia coli ATCC 25922 after 18 hrs in presence of MgCl2 by CLSI based broth microdilution method (reference value: 64 microM); format: functional; conditions: ATCC 25922, 18 h
[45] = tested on: Escherichia coli; assay: Antimicrobial activity against Escherichia coli ATCC 25922 preincubated for 1 hr in presence of 10% mouse serum and measured after 18 hrs by CLSI-based broth microdilution assay (reference value: 64 microM); format: functional
[46] = Selectivity index, ratio of MHC10 for human RBC to geometric mean of peptide MIC for gram positive bacteria; format: toxicity; conditions: human red blood cells, read-out: Selectivity Index
[47] = tested on: Escherichia coli; assay: Antibacterial activity against Escherichia coli ATCC 25922 at 0.5 times MIC incubated for 18 hrs measured at 1 passages by CLSI based broth microdilution method; format: functional, organism-based
[48] = tested on: Escherichia coli; assay: Ratio of MIC for antibacterial activity against Escherichia coli ATCC 25922 after 15 passages to MIC for antibacterial activity against Escherichia coli ATCC 25922 incubated for 18 hrs; format: functional

CC[C@H](C)[C@H](NC(=O)[C@H](CCCNC(=N)N)NC(=O)[C@H](CCCCN)NC(=O)[C@H](CC(C)C)NC(=O)[C@H](CC(C)C)NC(=O)CN)C(=O)N[C@@H](CCCCN)C(=O)N[C@H](C(=O)N[C@@H](CC(C)C)C(=O)N[C@@H](CC(C)C)C(N)=O)[C@@H](C)O [ANOPLIN] (H-GLLKRIKTLL-NH2)
Activity [1]: Active
Activity [2]: 62.1%
MHC10 [3]: > 256 µM
MIC [4]: 128 µM
MIC [5]: 16 µM (≈ 18.5 µg/mL)
Activity [6]: inactive
fractional inhibitory concentration index (FICI) [7]: 0.3125
Ratio [8]: 2 - 4
Activity [9]: inactive
Ratio [10]: 2 - 4
MIC [11]: 128 µM
inhibition [12]: Active
MIC [13]: 64 µM
Activity [14]: Active
Activity [15]: 20.4%
fractional inhibitory concentration index (FICI) [16]: 0.125
selectivity ratio [17]: 13.5
fractional inhibitory concentration index (FICI) [18]: 0.3125
MIC [19]: 64 µM (≈ 73.8 µg/mL)
fractional inhibitory concentration index (FICI) [20]: 0.1875
Activity [21]: Active
MIC [22]: 32 µM
Ratio [23]: 2 - 4
MIC [24]: > 128 µM
Ratio [25]: 1
Activity [26]: inactive
Ratio [27]: 2 - 4
MIC [28]: > 128 µM
MIC [29]: 8 µM (≈ 9.23 µg/mL)
Ratio [30]: 2 - 4
Ratio [31]: 2 - 4
MIC [32]: > 128 µM
Ratio [33]: >2
MIC [34]: 64 µM (≈ 73.8 µg/mL)
Activity [35]: Active
fractional inhibitory concentration index (FICI) [36]: 0.1875
MIC [37]: 64 µM (≈ 73.8 µg/mL)
Ratio [38]: 2 - 4
MIC [39]: 8 µM (≈ 9.23 µg/mL)
fractional inhibitory concentration index (FICI) [40]: 0.125
MIC [41]: 64 µM (≈ 73.8 µg/mL)
MIC [42]: 32 µM
Ratio [43]: 2 - 4
MIC [44]: 32 µM
MIC [45]: 64 µM
selectivity ratio [46]: 11.3

CO[C@H]1/C=C/O[C@@]2(C)Oc3c(C)c(O)c4c(O)c(c(/C=N/N5CCN(C)CC5)c(O)c4c3C2=O)NC(=O)/C(C)=C\C=C\[C@H](C)[C@H](O)[C@@H](C)[C@@H](O)[C@@H](C)[C@H](OC(C)=O)[C@@H]1C [RIFAMPIN]
MIC [5]: 32 µM (≈ 26.3 µg/mL)
MIC [19]: 4 µM (≈ 3.29 µg/mL)
Activity [47]: Active
MIC [29]: 2 µM (≈ 1.65 µg/mL)
MIC [34]: 32 µM (≈ 26.3 µg/mL)
MIC [37]: < 1 µM
MIC [39]: < 1 µM
MIC [41]: < 1 µM
Ratio [48]: >32
